According to patent publication US20080009418A1, “Selective Inhibitors” (Alchemia LTD., priority 2004, published 2008):

Tests used:
[1] = target: T1, Human neuropeptide Y (NPY-Y1) (Homo sapiens, UniProt P25929); experiment: Radioligand binding, human neuropeptide Y NPY-Y1 membranes, FlashPlate, [125I]-PYY; conditions: compound at 10 μM, [125I]-PYY
T1 construct: purchased Perkin Elmer Biosignal
T1 sequence (P25929 1-384): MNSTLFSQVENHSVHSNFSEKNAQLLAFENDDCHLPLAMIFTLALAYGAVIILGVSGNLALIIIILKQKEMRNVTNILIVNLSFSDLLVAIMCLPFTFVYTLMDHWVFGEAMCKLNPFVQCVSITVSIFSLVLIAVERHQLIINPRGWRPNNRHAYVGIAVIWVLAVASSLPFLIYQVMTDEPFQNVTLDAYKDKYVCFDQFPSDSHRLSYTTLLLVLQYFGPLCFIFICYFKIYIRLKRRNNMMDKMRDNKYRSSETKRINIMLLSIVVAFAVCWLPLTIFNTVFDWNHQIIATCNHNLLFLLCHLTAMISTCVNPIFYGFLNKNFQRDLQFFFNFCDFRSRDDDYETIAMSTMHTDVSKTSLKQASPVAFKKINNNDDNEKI
In short: (§1)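 Cloned human receptor membranes were coated onto FlashPlate wells and incubated with radioligand and compound (added from a 0.5 mM DMSO daughter plate) for 1 hour at room temperature in the dark. Scintillation counting gave percent inhibition, with DMSO defining total and reference ligand defining non-specific binding.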

Human neurokinin (NK1) = target: T2, Human neurokinin (NK1) (Homo sapiens, UniProt P25103); experiment: Radioligand binding, human neurokinin NK1 membranes, filtration, [125I]-Substance P; conditions: compound at 10 μM, [125I]-Substance P
T2 construct: purchased Perkin Elmer Biosignal
In short: (§2)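 Filtration binding on cloned human receptor membranes (1 Unit/well), [125I]-Substance P for NK1 and [3H]-Diprenorphine for KOP, 1 h at room temperature. Filters PEI-presoaked, washed with cold 50 mM Tris-HCl pH 7.4, counted by scintillation; percent inhibition calculated, reference ligand defining non-specific binding.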

Human opioid (ORL1) = target: T3, Human opioid (ORL1) (Homo sapiens, UniProt P41146); experiment: Radioligand binding, human opioid ORL1 membranes, FlashPlate, [125I]-Nociceptin; conditions: compound at 10 μM, [125I]-Nociceptin
T3 construct: purchased Perkin Elmer Biosignal
In short: as §1

Human κ-Opioid (KOP) = target: T4, Human κ-Opioid (KOP) (Homo sapiens, UniProt P41145); experiment: Radioligand binding, human κ-opioid (KOP) membranes, filtration, [3H]-Diprenorphine; conditions: compound at 10 μM, [3H]-Diprenorphine
T4 construct: purchased Perkin Elmer Biosignal
In short: as §2

Human δ-opioid (DOP) = target: T5, Human δ-opioid (DOP) (Homo sapiens, UniProt P41143); experiment: Radioligand binding, human δ-opioid (DOP) membranes, FlashPlate, [3H]-Bremazocine; conditions: compound at 10 μM, [3H]-Bremazocine
T5 construct: purchased Perkin Elmer Biosignal
In short: as §1

Human Melanocortin (MC3) = target: T6, Human Melanocortin (MC3) (Homo sapiens, UniProt P41968); experiment: Radioligand binding, human melanocortin MC3 membranes, FlashPlate, [125I]-NDP-αMSH; conditions: compound at 10 μM, [125I]-NDP-αMSH
T6 construct: purchased Perkin Elmer Biosignal
In short: as §1

[2] = target: T7, Human melanin-concentrating hormone (MCH1) (Homo sapiens, UniProt Q99705); experiment: Radioligand binding, human melanin-concentrating hormone MCH1 membranes, FlashPlate, [125I]-S36057; conditions: compound at 10 μM
T7 construct: purchased Perkin Elmer Biosignal
In short: as §1

Human μ-opioid (MOP) = target: T8, Human μ-opioid (MOP) (Homo sapiens, UniProt P35372); experiment: Radioligand binding, human μ-opioid (MOP) membranes, FlashPlate, [3H]-Naloxone; conditions: compound at 10 μM, [3H]-Naloxone
T8 construct: purchased Perkin Elmer Biosignal
In short: as §1

Human Melanocortin (MC4) = target: T9, Human Melanocortin (MC4) (Homo sapiens, UniProt P32245); experiment: Radioligand binding, human melanocortin MC4 membranes, FlashPlate, [125I]-NDP-αMSH; conditions: compound at 10 μM, [125I]-NDP-αMSH
T9 construct: purchased Perkin Elmer Biosignal
In short: as §1

Human melanocortin (MC5) = target: T10, Human melanocortin (MC5) (Homo sapiens, UniProt P33032); experiment: Radioligand binding, human melanocortin MC5 membranes, FlashPlate, [125I]-NDP-αMSH; conditions: compound at 10 μM, [125I]-NDP-αMSH
T10 construct: purchased Perkin Elmer Biosignal
In short: as §1

Mouse urotensin (mUR2) = target: T11, Mouse urotensin (mUR2) (Mus musculus, UniProt Q8VIH9); experiment: Radioligand binding, mouse urotensin mUR2 membranes, FlashPlate, [125I]-Urotensin II; conditions: compound at 10 μM, [125I]-Urotensin II
T11 construct: purchased Perkin Elmer Biosignal
T11 sequence (Q8VIH9 1-385): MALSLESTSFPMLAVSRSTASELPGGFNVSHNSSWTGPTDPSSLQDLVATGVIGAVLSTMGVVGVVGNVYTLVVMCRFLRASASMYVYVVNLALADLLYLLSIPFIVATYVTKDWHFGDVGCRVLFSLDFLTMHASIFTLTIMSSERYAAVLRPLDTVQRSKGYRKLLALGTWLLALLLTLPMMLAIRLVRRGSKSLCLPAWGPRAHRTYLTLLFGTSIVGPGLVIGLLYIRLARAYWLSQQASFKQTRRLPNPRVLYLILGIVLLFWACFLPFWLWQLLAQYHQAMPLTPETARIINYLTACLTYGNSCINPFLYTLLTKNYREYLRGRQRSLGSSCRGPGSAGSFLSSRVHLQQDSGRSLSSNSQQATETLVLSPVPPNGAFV
In short: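 Cloned mouse urotensin (mUR2) receptor membranes from Perkin Elmer Biosignal were immobilized in FlashPlate microplates using a proprietary coating. Each well got 19.5 μl buffer, then 0.5 μl of DMSO, reference ligand, or compound. Adding 5 μl of [125I]-Urotensin II, diluted to 5× final concentration in binding buffer, started binding. Plates were sealed with TopSeal-A and incubated 1 hour at room temperature in the dark. Wells were counted for 30 seconds each on a TopCount after a 60-second delay, and percentage inhibition was calculated.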

T7 sequence (Q99705 whole entry): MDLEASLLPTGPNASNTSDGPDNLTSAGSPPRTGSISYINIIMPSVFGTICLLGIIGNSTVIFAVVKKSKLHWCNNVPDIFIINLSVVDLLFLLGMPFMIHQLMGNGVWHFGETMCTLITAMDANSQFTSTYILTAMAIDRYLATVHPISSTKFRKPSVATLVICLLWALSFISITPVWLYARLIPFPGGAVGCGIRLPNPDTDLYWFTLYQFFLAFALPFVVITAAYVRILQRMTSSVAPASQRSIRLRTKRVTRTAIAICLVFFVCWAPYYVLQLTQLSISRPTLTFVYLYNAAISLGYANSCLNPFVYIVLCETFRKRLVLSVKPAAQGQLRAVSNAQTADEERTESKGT
T9 sequence (P32245 whole entry): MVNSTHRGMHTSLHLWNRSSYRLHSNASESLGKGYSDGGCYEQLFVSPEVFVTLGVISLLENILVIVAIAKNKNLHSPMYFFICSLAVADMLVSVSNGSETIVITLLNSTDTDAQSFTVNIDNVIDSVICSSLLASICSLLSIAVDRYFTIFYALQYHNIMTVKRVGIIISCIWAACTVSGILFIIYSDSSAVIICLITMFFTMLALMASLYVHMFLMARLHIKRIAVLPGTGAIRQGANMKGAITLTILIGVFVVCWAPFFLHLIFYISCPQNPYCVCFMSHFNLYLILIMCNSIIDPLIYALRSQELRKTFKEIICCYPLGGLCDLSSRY
T5 sequence (P41143 whole entry): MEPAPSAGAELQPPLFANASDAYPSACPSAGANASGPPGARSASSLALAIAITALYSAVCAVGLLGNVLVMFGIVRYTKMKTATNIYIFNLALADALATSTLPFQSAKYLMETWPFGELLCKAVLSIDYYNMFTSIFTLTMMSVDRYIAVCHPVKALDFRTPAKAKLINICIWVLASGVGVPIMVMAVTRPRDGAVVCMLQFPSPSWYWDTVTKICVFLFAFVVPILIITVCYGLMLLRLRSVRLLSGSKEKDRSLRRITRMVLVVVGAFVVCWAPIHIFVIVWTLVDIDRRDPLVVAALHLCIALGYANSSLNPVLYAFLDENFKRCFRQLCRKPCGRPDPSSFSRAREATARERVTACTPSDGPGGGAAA
T2 sequence (P25103 whole entry): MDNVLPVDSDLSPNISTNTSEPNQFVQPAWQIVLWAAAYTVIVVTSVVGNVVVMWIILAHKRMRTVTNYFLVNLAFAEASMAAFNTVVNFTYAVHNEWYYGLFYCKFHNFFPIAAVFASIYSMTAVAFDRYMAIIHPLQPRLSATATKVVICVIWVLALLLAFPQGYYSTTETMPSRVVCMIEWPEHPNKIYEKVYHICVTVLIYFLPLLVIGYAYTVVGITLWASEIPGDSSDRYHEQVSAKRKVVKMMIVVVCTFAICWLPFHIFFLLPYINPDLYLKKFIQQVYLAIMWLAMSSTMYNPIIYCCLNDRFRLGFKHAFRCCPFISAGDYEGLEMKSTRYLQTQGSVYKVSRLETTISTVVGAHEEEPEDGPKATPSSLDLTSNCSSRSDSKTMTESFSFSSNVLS
T4 sequence (P41145 whole entry): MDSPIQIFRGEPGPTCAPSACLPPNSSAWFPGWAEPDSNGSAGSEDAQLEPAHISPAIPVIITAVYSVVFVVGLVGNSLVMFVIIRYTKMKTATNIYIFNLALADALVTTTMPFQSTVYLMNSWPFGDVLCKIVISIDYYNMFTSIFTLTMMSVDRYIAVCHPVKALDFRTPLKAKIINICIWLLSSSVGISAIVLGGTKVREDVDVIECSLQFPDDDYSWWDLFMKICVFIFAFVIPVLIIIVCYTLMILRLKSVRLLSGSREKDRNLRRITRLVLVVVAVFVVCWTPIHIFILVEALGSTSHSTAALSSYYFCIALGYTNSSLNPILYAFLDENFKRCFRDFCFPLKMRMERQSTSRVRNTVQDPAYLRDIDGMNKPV
T8 sequence (P35372 whole entry): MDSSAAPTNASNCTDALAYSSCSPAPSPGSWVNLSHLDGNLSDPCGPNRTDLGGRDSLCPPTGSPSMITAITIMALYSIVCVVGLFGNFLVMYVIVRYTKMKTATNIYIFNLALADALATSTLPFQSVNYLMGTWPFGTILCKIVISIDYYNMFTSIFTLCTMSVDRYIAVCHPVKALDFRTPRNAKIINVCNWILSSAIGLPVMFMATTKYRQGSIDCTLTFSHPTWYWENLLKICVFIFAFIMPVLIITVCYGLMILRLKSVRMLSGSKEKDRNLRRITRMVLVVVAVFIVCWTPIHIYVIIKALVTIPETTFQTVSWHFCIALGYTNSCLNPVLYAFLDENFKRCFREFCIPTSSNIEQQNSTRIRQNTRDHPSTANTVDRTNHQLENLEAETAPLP
T10 sequence (P33032 whole entry): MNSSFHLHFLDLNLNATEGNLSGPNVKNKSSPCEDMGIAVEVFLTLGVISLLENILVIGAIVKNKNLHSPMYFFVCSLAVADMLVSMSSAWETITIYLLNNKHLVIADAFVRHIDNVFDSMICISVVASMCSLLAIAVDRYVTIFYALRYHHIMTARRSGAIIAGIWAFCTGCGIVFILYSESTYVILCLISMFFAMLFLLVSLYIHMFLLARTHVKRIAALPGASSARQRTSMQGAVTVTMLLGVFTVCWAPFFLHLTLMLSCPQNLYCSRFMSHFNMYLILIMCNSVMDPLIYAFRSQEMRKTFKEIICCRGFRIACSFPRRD
T6 sequence (P41968 whole entry): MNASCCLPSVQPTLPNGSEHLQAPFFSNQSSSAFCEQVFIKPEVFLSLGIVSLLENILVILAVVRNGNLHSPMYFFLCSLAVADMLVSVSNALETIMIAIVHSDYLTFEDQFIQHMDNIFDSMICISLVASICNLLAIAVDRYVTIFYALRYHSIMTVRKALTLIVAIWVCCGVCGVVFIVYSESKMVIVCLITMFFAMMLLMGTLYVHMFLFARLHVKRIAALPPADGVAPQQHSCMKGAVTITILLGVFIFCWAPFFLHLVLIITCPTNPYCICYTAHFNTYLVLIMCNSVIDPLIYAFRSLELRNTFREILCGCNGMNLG
T3 sequence (P41146 whole entry): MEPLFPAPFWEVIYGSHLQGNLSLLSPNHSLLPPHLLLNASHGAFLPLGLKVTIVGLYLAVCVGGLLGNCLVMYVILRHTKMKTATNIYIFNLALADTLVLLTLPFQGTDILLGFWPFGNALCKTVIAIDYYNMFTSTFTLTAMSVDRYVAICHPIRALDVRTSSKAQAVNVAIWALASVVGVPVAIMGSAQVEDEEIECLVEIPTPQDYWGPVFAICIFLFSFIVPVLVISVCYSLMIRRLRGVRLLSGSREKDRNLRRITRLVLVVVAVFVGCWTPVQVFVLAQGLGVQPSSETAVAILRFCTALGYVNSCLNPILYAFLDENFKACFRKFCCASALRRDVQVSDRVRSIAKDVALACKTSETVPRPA

CO[C@H]1[C@H](O)[C@@H](COCc2ccc(-c3ccccc3)cc2)OC(OCc2ccc(Cl)cc2)[C@@H]1NC(=O)CCNC(=N)N (stereo partly drawn) [compound 94]
A9 radioligand binding, percentage inhibition [1]: + (“+” indicates greater than 50% inhibition at 10 μM) | A8 radioligand binding, percentage inhibition (Human neurokinin (NK1)): + (“+” indicates greater than 50% inhibition at 10 μM) | A10 radioligand binding, percentage inhibition (Human opioid (ORL1)): + (“+” indicates greater than 50% inhibition at 10 μM) | A2 radioligand binding, percentage inhibition (Human κ-Opioid (KOP)): − (“−” indicates less than 50% inhibition at 10 μM) | A1 radioligand binding, percentage inhibition (Human δ-opioid (DOP)): − (“−” indicates less than 50% inhibition at 10 μM) | A3 radioligand binding, percentage inhibition (Human Melanocortin (MC3)): + (“+” indicates greater than 50% inhibition at 10 μM) | A6 radioligand binding, percentage inhibition ([2]; [125I]-S36057): + (“+” indicates greater than 50% inhibition at 10 μM) | A7 radioligand binding, percentage inhibition (Human μ-opioid (MOP)): − (“−” indicates less than 50% inhibition at 10 μM) | A4 radioligand binding, percentage inhibition (Human Melanocortin (MC4)): + (“+” indicates greater than 50% inhibition at 10 μM) | A5 radioligand binding, percentage inhibition (Human melanocortin (MC5)): + (“+” indicates greater than 50% inhibition at 10 μM) | A11 radioligand binding, percentage inhibition (Mouse urotensin (mUR2)): − (“−” indicates less than 50% inhibition at 10 μM)

CSC1OC(COCc2ccccc2)C(O)C(OCc2ccccc2)C1NC(=O)CCCNC(=N)N (stereo not drawn) [compound 252]
A9: inhibition of radioligand binding ([1]; FlashPlate): − (“−” indicates less than 50% inhibition at 10 μM) | A8: inhibition of radioligand binding (Human neurokinin (NK1); filtration): + (“+” indicates greater than 50% inhibition at 10 μM) | A10: inhibition of radioligand binding (Human opioid (ORL1); FlashPlate): − (“−” indicates less than 50% inhibition at 10 μM) | A2: inhibition of radioligand binding (Human κ-Opioid (KOP); filtration): − (“−” indicates less than 50% inhibition at 10 μM) | A1: inhibition of radioligand binding (Human δ-opioid (DOP); FlashPlate): − (“−” indicates less than 50% inhibition at 10 μM) | A3: inhibition of radioligand binding (Human Melanocortin (MC3); FlashPlate): − (“−” indicates less than 50% inhibition at 10 μM) | A6: inhibition of radioligand binding ([2]; [125I]-S36057, FlashPlate): − (“−” indicates less than 50% inhibition at 10 μM) | A7: inhibition of radioligand binding (Human μ-opioid (MOP); FlashPlate): − (“−” indicates less than 50% inhibition at 10 μM) | A4: inhibition of radioligand binding (Human Melanocortin (MC4); FlashPlate): − (“−” indicates less than 50% inhibition at 10 μM) | A5: inhibition of radioligand binding (Human melanocortin (MC5); FlashPlate): − (“−” indicates less than 50% inhibition at 10 μM) | A11: inhibition of radioligand binding (Mouse urotensin (mUR2); FlashPlate): − (“−” indicates less than 50% inhibition at 10 μM)

NCCC(=O)NC1C(OCc2ccc(Cl)cc2)OC(COCc2ccc(Cl)cc2)C(O)C1OCc1ccccc1 (single isomer, unassigned) [compound 488]
A9: inhibition of radioligand binding, human neuropeptide Y (NPY-Y1) [1]: − (“−” indicates less than 50% inhibition at 10 μM) | A8: inhibition of radioligand binding, human neurokinin (NK1) (Human neurokinin (NK1); 10 µM): + (“+” indicates greater than 50% inhibition at 10 μM) | A10: inhibition of radioligand binding, human opioid (ORL1) (Human opioid (ORL1); 10 µM): + (“+” indicates greater than 50% inhibition at 10 μM) | A2: inhibition of radioligand binding, human κ-opioid (KOP) (Human κ-Opioid (KOP)): − (“−” indicates less than 50% inhibition at 10 μM) | A1: inhibition of radioligand binding, human δ-opioid (DOP) (Human δ-opioid (DOP)): − (“−” indicates less than 50% inhibition at 10 μM) | A3: inhibition of radioligand binding, human melanocortin (MC3) (Human Melanocortin (MC3)): − (“−” indicates less than 50% inhibition at 10 μM) | A6: inhibition of radioligand binding, human melanin-concentrating hormone (MCH1) ([2]; [125I]-S36057): − (“−” indicates less than 50% inhibition at 10 μM) | A7: inhibition of radioligand binding, human μ-opioid (MOP) (Human μ-opioid (MOP); 10 µM): − (“−” indicates less than 50% inhibition at 10 μM) | A4: inhibition of radioligand binding, human melanocortin (MC4) (Human Melanocortin (MC4); 10 µM): + (“+” indicates greater than 50% inhibition at 10 μM) | A5: inhibition of radioligand binding, human melanocortin (MC5) (Human melanocortin (MC5)): + (“+” indicates greater than 50% inhibition at 10 μM) | A11: inhibition of radioligand binding, mouse urotensin (mUR2) (Mouse urotensin (mUR2)): − (“−” indicates less than 50% inhibition at 10 μM)
